Test results taken from PubChem BioAssay (NCI).
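Values below derive from 48-hour exposures of cells grown in 96-well plates, with endpoints linearly interpolated between the two concentrations bracketing the appropriate inhibition level. TGI: concentration producing complete growth inhibition.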

What was measured:
Assay in all cases: DTP human tumour cell line panel, 48 h
IGROV1 ovarian = test system: IGROV1 ovarian
KM12 colon = test system: KM12 colon
OVCAR-3 ovarian = test system: OVCAR-3 ovarian
HCT-15 colon = test system: HCT-15 colon
MCF7 breast = test system: MCF7 breast
BT-549 breast = test system: BT-549 breast
K-562 leukemia = test system: K-562 leukemia
OVCAR-5 ovarian = test system: OVCAR-5 ovarian
EKVX NSCLC = test system: EKVX NSCLC
A549 NSCLC = test system: A549 NSCLC
COLO 205 colon = test system: COLO 205 colon
SF-539 CNS = test system: SF-539 CNS
SF-295 CNS = test system: SF-295 CNS
MALME-3M melanoma = test system: MALME-3M melanoma
OVCAR-8 ovarian = test system: OVCAR-8 ovarian
HCC-2998 colon = test system: HCC-2998 colon
ACHN renal = test system: ACHN renal
UO-31 renal = test system: UO-31 renal
CAKI-1 renal = test system: CAKI-1 renal
TK-10 renal = test system: TK-10 renal
MDA-N = test system: MDA-N
SK-MEL-5 melanoma = test system: SK-MEL-5 melanoma
HS 578T breast = test system: HS 578T breast
SR leukemia = test system: SR leukemia
MOLT-4 leukemia = test system: MOLT-4 leukemia
UACC-62 melanoma = test system: UACC-62 melanoma
HOP-62 NSCLC = test system: HOP-62 NSCLC
PC-3 prostate = test system: PC-3 prostate
U251 CNS = test system: U251 CNS
SNB-75 CNS = test system: SNB-75 CNS
MDA-MB-435 = test system: MDA-MB-435
NCI-H522 lung = test system: NCI-H522 lung
SK-OV-3 ovarian = test system: SK-OV-3 ovarian
SN12C renal = test system: SN12C renal
786-0 renal = test system: 786-0 renal
NCI/ADR-RES ovarian = test system: NCI/ADR-RES ovarian
NCI-H460 lung = test system: NCI-H460 lung
RPMI-8226 leukemia = test system: RPMI-8226 leukemia
DU-145 prostate = test system: DU-145 prostate
RXF 393 renal = test system: RXF 393 renal
SF-268 CNS = test system: SF-268 CNS
NCI-H23 lung = test system: NCI-H23 lung
SW-620 colon = test system: SW-620 colon
SK-MEL-2 melanoma = test system: SK-MEL-2 melanoma
LOX IMVI melanoma = test system: LOX IMVI melanoma
SK-MEL-28 melanoma = test system: SK-MEL-28 melanoma
NCI-H226 lung = test system: NCI-H226 lung
CCRF-CEM leukemia = test system: CCRF-CEM leukemia
HCT-116 colon = test system: HCT-116 colon
HL-60(TB) leukemia = test system: HL-60(TB) leukemia
HOP-92 NSCLC = test system: HOP-92 NSCLC
OVCAR-4 ovarian = test system: OVCAR-4 ovarian
A498 renal = test system: A498 renal
T-47D breast = test system: T-47D breast
HT29 colon = test system: HT29 colon
UACC-257 melanoma = test system: UACC-257 melanoma
MDA-MB-231 breast = test system: MDA-MB-231 breast

Measured: TGI

O=c1ccn(CC2(CO)CCCC2)c(=O)[nH]1
> 100 µM: IGROV1 ovarian | KM12 colon | OVCAR-3 ovarian | HCT-15 colon | MCF7 breast | BT-549 breast | K-562 leukemia | OVCAR-5 ovarian | EKVX NSCLC | A549 NSCLC | COLO 205 colon | SF-539 CNS | SF-295 CNS | MALME-3M melanoma | OVCAR-8 ovarian | HCC-2998 colon | ACHN renal | UO-31 renal | CAKI-1 renal | TK-10 renal | MDA-N | SK-MEL-5 melanoma | HS 578T breast | SR leukemia | MOLT-4 leukemia | UACC-62 melanoma | HOP-62 NSCLC | PC-3 prostate | U251 CNS | SNB-75 CNS | MDA-MB-435 | NCI-H522 lung | SK-OV-3 ovarian | SN12C renal | 786-0 renal | NCI/ADR-RES ovarian | NCI-H460 lung | RPMI-8226 leukemia | DU-145 prostate | RXF 393 renal | SF-268 CNS | NCI-H23 lung | SW-620 colon | SK-MEL-2 melanoma | LOX IMVI melanoma | SK-MEL-28 melanoma | NCI-H226 lung | CCRF-CEM leukemia | HCT-116 colon | HL-60(TB) leukemia | HOP-92 NSCLC | OVCAR-4 ovarian | A498 renal | T-47D breast | HT29 colon | UACC-257 melanoma | MDA-MB-231 breast
